Earlier results as cited in patent publication US20200309767A1, “HIGH-THROUGHPUT IMAGING-BASED METHODS FOR PREDICTING CELL-TYPE-SPECIFIC TOXICITY OF XENOBIOTICS WITH DIVERSE CHEMICAL STRUCTURES” (priority 2015, published 2020).
Counter-ions that a name gives are not always drawn. Like-named read-outs stand apart in the source and are kept apart here.

What was measured:
[1] = system: human kidney; details: cited from earlier work
[2] = system: liver; details: in vivo; cited from earlier work
[3] = system: human proximal tubular cells (PTCs); details: cited from earlier work
[4] = system: lung; details: cited from earlier work
[5] = known human kidney toxicity flag 1/0
[6] = known in vivo group, Toxic / Non-toxic

Compound | Nephrotoxic ([1]; in vivo) | Hepatotoxic [2] | PTC Toxicity ([3]; human, in vivo) | PTC-toxic ([3]; human, in vivo) | Pulmonotoxic ([4]; human, in vivo) | other results
CC(=O)OCC1=C(C(=O)O)N2C(=O)[C@@H](NC(=O)Cc3cccs3)[C@H]2SC1 [Cephalothin] | 1 | 0 | Toxic | 1 |  | 
CC(C)Cc1ccc(C(C)C(=O)O)cc1 (centres unmarked) [Ibuprofen] |  | 1 | Non-toxic | 0 |  | 
O=C1CC[C@@]2(O)[C@H]3Cc4ccc(O)c5c4[C@@]2(CCN3CC2CC2)[C@H]1O5 [Naltrexone hydrochloride] |  |  |  |  | 0 | 
C[C@H]1O[C@H](O[C@H]2[C@H](O)[C@@H](O)[C@@H](O[C@H]3[C@H](O)[C@@H](O)C(O)O[C@@H]3CO)O[C@@H]2CO)[C@H](O)[C@@H](O)[C@@H]1N[C@H]1C=C(CO)[C@@H](O)[C@H](O)[C@H]1O (some centres unmarked) [Acarbose] |  |  | Non-toxic |  |  | PTC-toxic ([3]; known toxicity flag 1/0): 0
CO[C@H]1/C=C/O[C@@]2(C)Oc3c(C)c(O)c4c(O)c(c(/C=N/N5CCN(C)CC5)c(O)c4c3C2=O)NC(=O)/C(C)=C\C=C\[C@H](C)[C@H](O)[C@@H](C)[C@@H](O)[C@@H](C)[C@H](OC(C)=O)[C@@H]1C [Rifampicin] | 1 | 1 | Toxic | 1 |  | 
OCCOCCOCCO [Triethylene glycol] |  |  |  |  | 0 | 
C=CC[C@@H]1/C=C(\C)C[C@H](C)C[C@H](OC)[C@H]2O[C@@](O)(C(=O)C(=O)N3CCCC[C@H]3C(=O)O[C@H](/C(C)=C/[C@@H]3CC[C@@H](O)[C@H](OC)C3)[C@H](C)[C@@H](O)CC1=O)[C@H](C)C[C@@H]2OC [Tacrolimus] | 1 | 0 | Toxic | 1 |  | 
CC(=O)Nc1ccc(O)cc1 [Acetaminophen] | 1 | 1 | Non-toxic | 0 |  | 
CC1=C2C(=CO[C@H](C)[C@H]2C)C(O)=C(C(=O)O)C1=O [Citrinin] | 1 | 0 | Toxic | 1 |  | 
COc1cccc2c1cc([N+](=O)[O-])c1c(C(=O)O)cc3c(c12)OCO3 [Aristolochic acid] |  | 1 |  |  |  | Nephrotoxic [1, 5]: 1; PTC Toxicity [3, 6]: Toxic; PTC-toxic ([3]; known toxicity flag 1/0): 1
O=P1(N(CCCl)CCCl)NCCCO1 (centres unmarked) [Cyclophosphamide] |  |  |  |  |  | Pulmonotoxic ([4]; known toxicity flag 1/0): 1
CN(CCCC(=O)c1cccnc1)N=O [NNK] |  |  |  |  |  | Pulmonotoxic ([4]; known toxicity flag 1/0): 1
Cl[C@H]1[C@H](Cl)[C@@H](Cl)[C@@H](Cl)[C@H](Cl)[C@H]1Cl [Lindane] | 1 | 0 | Non-toxic | 0 |  | 
Bleomycin sulfate |  |  |  |  | 1 | 
[Cl][Cu][Cl] [Copper(II) chloride] |  | 1 |  |  |  | Nephrotoxic [1, 5]: 1; PTC Toxicity [3, 6]: Toxic; PTC-toxic ([3]; known toxicity flag 1/0): 1
CCOc1ccc(NC(C)=O)cc1 [Phenacetin] |  |  | Non-toxic |  |  | 
CN1COCN(Cc2cnc(Cl)s2)/C1=N\[N+](=O)[O-] [Thiamethoxam] |  |  |  |  | 0 | 
N[C@@H](Cc1cc(I)c(Oc2ccc(O)c(I)c2)c(I)c1)C(=O)O [Triiodothyronine] |  |  | Non-toxic |  |  | 
C[C@H](Cn1cnc2c(N)ncnc21)OCP(=O)(O)O [Tenofovir] | 1 | 0 | Toxic | 1 | 0 | 

Compound | Nephrotoxic ([1]; in vivo) | Hepatotoxic [2] | PTC Toxicity ([3]; human, in vivo) | PTC-toxic ([3]; human, in vivo) | Pulmonotoxic ([4]; human, in vivo) | other results
O=C1CN(/N=C/c2ccc([N+](=O)[O-])o2)C(=O)N1 [Nitrofurantoin] |  |  |  |  | 1 | 
N[C@@H](Cc1ccc(O)c(O)c1)C(=O)O [Levodopa] |  |  | Non-toxic |  |  | 
CC(O)(CS(=O)(=O)c1ccc(F)cc1)C(=O)Nc1ccc(C#N)c(C(F)(F)F)c1 (centres unmarked) [Bicalutamide] |  |  |  |  | 0 | 
O=[As]O[As]=O (centres unmarked) [Arsenic(III) oxide] |  | 1 |  |  |  | Nephrotoxic [1, 5]: 1; PTC Toxicity [3, 6]: Toxic; PTC-toxic ([3]; known toxicity flag 1/0): 1
CC(=O)N1CCN(c2ccc(OCC3COC(Cn4ccnc4)(c4ccc(Cl)cc4Cl)O3)cc2)CC1 (centres unmarked) [Ketoconazole] |  |  |  |  | 0 | 
C[C@]12CCC(=O)C=C1CC[C@@H]1[C@@H]2[C@@H](O)C[C@@]2(C)[C@H]1CC[C@]2(O)C(=O)CO [Hydrocortisone] |  | 0 | Non-toxic | 0 |  | 
Cc1ccnc2c1NC(=O)c1cccnc1N2C1CC1 [Nevirapine] |  |  |  |  | 0 | 
C[C@H]1C(=O)O[C@@H]2CCN3CC=C(COC(=O)[C@](C)(O)[C@]1(C)O)[C@H]23 [Monocrotaline] |  |  |  |  | 0 | 
[Bi+3].[Bi+3].[O-2].[O-2].[O-2] [Bismuth(III) oxide] |  | 1 |  |  |  | Nephrotoxic [1, 5]: 1; PTC Toxicity [3, 6]: Toxic; PTC-toxic ([3]; known toxicity flag 1/0): 1
CC(C)[C@H](N)C(=O)OCCOCn1cnc2c(=O)[nH]c(N)nc21 [Valacyclovir] | 1 | 1 | Non-toxic | 0 |  | 
CN(C)C(=N)N=C(N)N [Metformin hydrochloride] | 1 | 0 |  |  |  | 
OCCO [Ethylene glycol] | 1 | 0 | Non-toxic | 0 | 0 | 
[K+].[K+].[O]=[Cr](=[O])([O-])[O][Cr](=[O])(=[O])[O-] [Potassium dichromate] | 1 | 1 | Toxic | 1 |  | 
COc1ccc2[nH]cc(CCNC(C)=O)c2c1 [Melatonin] |  |  | Non-toxic |  |  | 
C[C@@H]1C[C@H]2[C@@H]3CCC4=CC(=O)C=C[C@]4(C)[C@@]3(F)[C@@H](O)C[C@]2(C)[C@@]1(O)C(=O)CO [Dexamethasone] | 0 | 0 | Non-toxic | 0 |  | 
CN(C)[C@@H]1C(O)=C(C(N)=O)C(=O)[C@@]2(O)C(O)=C3C(=O)c4c(O)cccc4[C@@](C)(O)[C@H]3C[C@@H]12 [Tetracycline] | 1 | 1 | Toxic | 1 |  | 
[Cl-].[Na+] [Sodium chloride] |  |  |  |  | 0 | 
COc1ccc(C[C@H](N)C(=O)N[C@H]2[C@@H](O)[C@H](n3cnc4c(N(C)C)ncnc43)O[C@@H]2CO)cc1 [Puromycin] | 1 | 1 | Toxic | 1 |  | 
C=CC(=C)CCC=C(C)C [β-Myrcene] |  |  |  |  | 0 | 

Compound | Nephrotoxic ([1]; in vivo) | Hepatotoxic [2] | PTC Toxicity ([3]; human, in vivo) | PTC-toxic ([3]; human, in vivo) | Pulmonotoxic ([4]; human, in vivo) | other results
Hydroxypropyl-β-cyclodextrin |  |  |  |  | 0 | 
CCCCc1oc2ccccc2c1C(=O)c1cc(I)c(OCCN(CC)CC)c(I)c1.Cl [Amidoarone hydrochloride] |  |  |  |  |  | Pulmonotoxic ([4]; known toxicity flag 1/0): 1
CN[C@H](CC(C)C)C(=O)N[C@H]1C(=O)N[C@@H](CC(N)=O)C(=O)N[C@H]2C(=O)N[C@H]3C(=O)N[C@H](C(=O)N[C@H](C(=O)O)c4cc(O)cc(O)c4-c4cc3ccc4O)[C@H](O)c3ccc(c(Cl)c3)Oc3cc2cc(c3O[C@@H]2O[C@H](CO)[C@@H](O)[C@H](O)[C@H]2O[C@H]2C[C@](C)(N)[C@H](O)[C@H](C)O2)Oc2ccc(cc2Cl)[C@H]1O [Vancomycin] | 1 | 1 | Non-toxic | 0 |  | 
NC(=O)N1c2ccccc2C=Cc2ccccc21 [Carbamazepine] |  |  |  |  | 1 | 
CN[C@H](CC(C)C)C(=O)N[C@H]1C(=O)N[C@@H](CC(N)=O)C(=O)N[C@H]2C(=O)N[C@H]3C(=O)N[C@H](C(=O)N[C@H](C(=O)O)c4cc(O)cc(O)c4-c4cc3ccc4O)[C@H](O)c3ccc(c(Cl)c3)Oc3cc2cc(c3O[C@@H]2O[C@H](CO)[C@@H](O)[C@H](O)[C@H]2O[C@H]2C[C@](C)(N)[C@H](O)[C@H](C)O2)Oc2ccc(cc2Cl)[C@H]1O [Vancomycin hydrochloride] |  |  |  |  | 0 | 
Cc1cc(C(C)(C)C)c(O)c(C(C)(C)C)c1 [Butylated hydroxytoluene] |  |  |  |  | 0 | 
Nc1ccc(N)cc1 [p-Phenylenediamine] |  |  |  |  | 1 | 
CC(=O)C(C)=O [Diacetyl] |  |  |  |  | 1 | 
CC(O)CCC(=O)c1ccoc1 (centres unmarked) [4-Ipomeanol] |  |  |  |  |  | Pulmonotoxic ([4]; known toxicity flag 1/0): 0
O=C(Cc1cccs1)N[C@@H]1C(=O)N2C(C(=O)[O-])=C(C[n+]3ccccc3)CS[C@H]12 [Cephaloridine] | 1 | 0 | Toxic | 1 |  | 
CC(=O)OCC1=C(C(=O)O)N2C(=O)[C@@H](NC(=O)CCC[C@@H](N)C(=O)O)[C@H]2SC1 [Cephalosporin C] | 1 | 0 | Toxic | 1 |  | 
NCC(=O)O [Glycine] | 0 | 0 | Non-toxic | 0 |  | 
C[C@@H]1[C@H](O)[C@@H](C)/C=C/C=C/CC/C=C/C=C/C=C/C=C/C(O[C@H]2O[C@H](C)[C@@H](O)[C@H](N)[C@@H]2O)CC2O[C@](O)(CC(O)C(O)CCC(O)CC(O)CC(O)CC(=O)O[C@H]1C)CC(O)C2C(=O)O (some centres unmarked) [Nystatin] |  |  |  |  | 0 | 
[Ge+4].[O-2].[O-2] [Germanium(IV) oxide] |  | 0 |  |  |  | Nephrotoxic [1, 5]: 1; PTC Toxicity [3, 6]: Toxic; PTC-toxic ([3]; known toxicity flag 1/0): 1
CN(Cc1cnc2nc(N)nc(N)c2n1)c1ccc(C(=O)N[C@@H](CCC(=O)O)C(=O)O)cc1 [Methotrexate] |  |  |  |  | 1 | 
[Cl][Au] [Gold(I) chloride] | 1 | 1 | Toxic | 1 |  | 
C=C(Cl)Cl [Vinylidene chloride] |  |  |  |  | 0 | 
CCC[C@@H]1C[C@@H](C(=O)N[C@@H]([C@H]2O[C@H](SC)[C@H](O)[C@@H](O)[C@H]2O)[C@@H](C)O)N(C)C1 [Lincomycin hydrochloride] |  |  |  |  | 0 | 
OC[C@@H](O)[C@@H](O)[C@H](O)[C@@H](O)CO [D-sorbitol] |  |  |  |  | 0 | 
